Reference: patent publication US9566262B2, “Itch suppression by fucoxanthin” (THE RITSUMEIKAN TRUST, priority 2015, dated 2017)
“Also recorded” adds a separate entry of the source.

Columns and labels:
NC/Nga mice [1] = assay: Scratching behavior (itch) in PiCl-sensitized NC/Nga dermatitis model mice, video monitoring; format: in vivo
Source text: On day 12, day 19, day 26 and day 33 after starting application of Vaseline or fucoxanthin, 0.8% picryl chloride (PiCl) was further applied to the back skin of the mice. The behaviors of the mice were observed by video monitoring. On day 34 after starting application of Vaseline or fucoxanthin, bromodeoxyuridine (BrdU, Nacalai Tesque) ([…]) was intraperitoneally administered to the mice. At 5 weeks after starting application of Vaseline or fucoxanthin, the time each mouse spent for scratching behavior in 10 minutes was measured by video monitoring. Then, the mice were sacrificed and the auricular lymph node, blood and skin were obtained. Serum IgE content was determined by enzyme-linked immunosorbent assay (ELISA) using Mouse IgE Assay Kit (Morinaga Institute of Biological Science, Inc.). […] BrdU uptake was determined by ELISA using Cell Proliferation ELISA, BrdU (Colorimetric) (Roche Diagnostics K.K.).
In the same manner as described in Example 2, Vaseline, fucoxanthin or tacrolimus and PiCl were applied to NC/Nga mice. At 5 weeks after starting application of fucoxanthin or tacrolimus, the time spent for scratching behavior per 10 minutes in the mice treated with fucoxanthin was measured and compared to that in the mice treated with tacrolimus. […]

NC/Nga mice [2] = assay: Serum IgE content by ELISA in NC/Nga mice; format: in vivo; conditions: topical application for 5 weeks, PiCl-sensitized, vs Vaseline
Source text: (§1) NC/Nga mice (5 weeks old, female) were purchased from Japan SLC, Inc. […] On day 12, day 19, day 26 and day 33 after starting application of Vaseline or fucoxanthin, 0.8% picryl chloride (PiCl) was further applied to the back skin of the mice. The behaviors of the mice were observed by video monitoring. On day 34 after starting application of Vaseline or fucoxanthin, bromodeoxyuridine (BrdU, Nacalai Tesque) (0.[…] weight) was intraperitoneally administered to the mice. At 5 weeks after starting application of Vaseline or fucoxanthin, the time each mouse spent for scratching behavior in 10 minutes was measured by video monitoring. Then, the mice were sacrificed and the auricular lymph node, blood and skin were obtained. Serum IgE content was determined by enzyme-linked immunosorbent assay (ELISA) using Mouse IgE Assay Kit (Morinaga Institute of Biological Science, Inc.). […] BrdU uptake was determined by ELISA using Cell Proliferation ELISA, BrdU (Colorimetric) (Roche Diagnostics K.K.). […] Also, serum IgE levels and swelling of the auricular lymph nodes of the mice were determined in the same manner as described in Example 2.

NC/Nga mice [3] = assay: Swelling (length) of the auricular lymph node in NC/Nga mice; format: in vivo; conditions: topical application for 5 weeks, PiCl-sensitized, vs Vaseline
Source text: as §1

GATA-luc = assay: Luciferase reporter assay in HEK293 cells; format: cell-based; conditions: HEK293, treated 3 hours after transfection for 48 hours, vs DMSO (fucoxanthin 0.1, 1, 10 μM)
Source text: (§2) The plasmids pGL3-Cebpα promoter-luc and pGL3-Mitf1 promoter-luc were provided by Dr. Hua Huang (University of Colorado school, Denver, USA). The plasmid NF-κB-luc was purchased from Agilent Technologies (Santa Clara, Calif.). The GATA-responsive reporter vector was provided by Dr. Ishijima (Takasaki University of Health and welfare, Gunma, Japan). Three GATA motifs from mouse α-1 globulin gene (5′-TGATAA-3′) were tandemly inserted into Sma I site of pRBGP3. HDC promoter was provided by Dr. Ootsu (Tohoku University school of Medicine, Sendai, Japan) and cloned into Kpn I-Hind III site of pGL4.10 (Hdc promoter-luc). The reporter assay was performed according to the method described in Kanatani, N. et al. Briefly, HEK293 cells were transfected with each of the luciferase constructs (0.2 μg) or pRL-CMV (Promega, Madison, Wis.) (0.001 μg). At 3 hours after transfection, the cells were treated with fucoxanthin (0.1 μM, 1 μM or 10 μM) or DMSO for 48 hours and reporter assay was performed using Dual-Luciferase® Reporter Assay System (Promega). Luciferase activity was measured using luminometer model TD20/20n (Turner BioSystems, Sunnyvale, Calif.) and normalized to Renilla luciferase activity expressed by CMV promoter.
GATA-reporter assay was performed using HEK293 cells expressing GATA-luc prepared in Example 8, in the same manner as described in Example 8 except using various carotenoids (fucoxanthin, astaxanthin, lycopene, β-carotene or retinoic acid) in place of fucoxanthin.

Mitf1-luc = assay: Luciferase reporter assay in HEK293 cells; format: cell-based; conditions: HEK293, 0.1, 1 or 10 μM for 48 hours, vs DMSO
Source text: as §2

Hdc-luc = assay: Luciferase reporter assay in HEK293 cells; format: cell-based; conditions: HEK293, 0.1, 1 or 10 μM for 48 hours, vs DMSO
Source text: as §2

Cebpα-luc = assay: Luciferase reporter assay in HEK293 cells; format: cell-based; conditions: HEK293, 0.1, 1 or 10 μM for 48 hours, vs DMSO
Source text: as §2

NF-κB-luc = assay: Luciferase reporter assay in HEK293 cells; format: cell-based; conditions: HEK293, 0.1, 1 or 10 μM for 48 hours, vs DMSO
Source text: as §2

[4] = system: bone marrow-derived mast cells (BMMCs); assay: Degranulation of BMMCs, β-hexosaminidase release after anti-DNP-IgE / DNP-HSA stimulation; format: cell-based, mice; conditions: pre-treated with 0.1 μM, 1 μM or 10 μM before DNP-HSA stimulation, vs DMSO
Experimental: The degranulation of BMMCs was evaluated by measuring β-hexosaminidase activity in the culture solution of the mature mast cells. Bone marrow cells obtained from 8-week-old female mice were cultured in a medium for conditioning containing interleukin-3 (IL-3) for 4 weeks to give mature mast cells. The mature mast cells thus prepared were cultured in 24-well plate (5×10^3 cells/well) overnight, and sensitized with 50 ng/mL anti-DNP-IgE (Sigma Chemicals) at 37° C. for 2 hours. The cells were rinsed by MT buffer (137 mmol/L NaCl, 2.7 mmol/L KCl, 1.8 mmol/L CaCl2, 1 mmol/L MgCl2.6H2O, 5.6 mmol/L glucose, 20 mmol/L HEPES, 0.1% BSA, pH7.3), and pre-treated with 0.1 μM, 1 μM or 10 μM fucoxanthin, or dimethyl sulfoxide (DMSO) for 10 minutes. Then, the cells were treated with 2.5 μg/mL DNP-labeled human serum albumin (Sigma Chemicals) at 37° C. for 30 minutes. After incubation, the supernatant was transferred to a 96-well plate and incubated with 3.3 mM p-nitrophenyl-2-acetamide-2-deoxy-β-glucopyranoside at 37° C. for 25 minutes. Absorbance at 405 nm was measured using microplate reader. The results are shown as percentage of total β-hexosaminidase.

## CC(=O)O[C@H]1CC(C)(C)C(=C=C/C(C)=C/C=C/C(C)=C/C=C/C=C(C)/C=C/C=C(\C)C(=O)C[C@@]23O[C@]2(C)C[C@@H](O)CC3(C)C)[C@](C)(O)C1 [fucoxanthin]
NC/Nga mice [1]; applied daily to back skin (0.1% (w/w) fucoxanthin in Vaseline), PiCl sensitization, at 5 weeks, vs Vaseline-applied mice
  time spent for scratching behavior in 10 minutes: attenuated; also recorded: remarkably shorter
NC/Nga mice [1]; topical application, PiCl-sensitized NC/Nga mice, scratching time per 10 minutes
  speed of action on itch compared with tacrolimus: faster-acting than tacrolimus
NC/Nga mice [2]
  serum IgE level: neither ear swelling (FIG. 9A) nor serum IgE level (FIG. 9B) were affected; also recorded: did not vary
NC/Nga mice [3]
  swelling of the auricular lymph node (ear swelling): neither ear swelling (FIG. 9A) nor serum IgE level (FIG. 9B) were affected; also recorded: failed to attenuate lymph inflammation; also recorded: not affected
GATA-luc
  GATA-luc expression: downregulated
Mitf1-luc
  Mitf1-luc reporter activity: not regulated
Hdc-luc
  Hdc-luc reporter activity: not regulated
Cebpα-luc
  Cebpα-luc reporter activity: not regulated
NF-κB-luc
  NF-κB activity (NFκB-luc): not affected
[4]
  release of β-hexosaminidase (degranulation): suppressed release of β-hexosaminidase in a dose-dependent manner
